# Measured values reported in patent US10894035B2, “Use of indole compounds to stimulate the immune system” (priority 2015, dated 2021).
# Tests used:
# Recombinant PLA2G1B = molecular target: T1, Recombinant PLA2G1B (Homo sapiens, UniProt P04054); assay: Bioassay of IL-7-induced pSTAT5 nuclear translocation in CD4 T cells exposed to recombinant PLA2G1B; assay type: cell-based
# T1 construct: made in house; host or cells: E. coli (inclusion bodies, urea-solubilized, renatured, HPLC-purified)
# Experimental: sPLA2G1B was produced in E. Coli. Inclusion bodies were solubilized in urea and afterwards renatured. sPLA2G1B was further purified by HPLC. Homogeneity of the preparations was verified by MassSpectrometry (Malditoff). The specific activity of the enzyme was always measured and compared to standard preparations.
# (§1) Inhibition of IL-7-induced phosphorylated STAT5 nuclear translocation (NTpSTAT) was measured as follows: VP plasma (5 or 10%) was first incubated with purified HD CD4 T cells (20 min) before stimulation by IL-7 (2 nM, 15 min.). Cells were then plated on polylysine coated glass slides before fixation by PFA (1.5%) and permeabilization by methanol (90% at −20° C.). pSTAT5 was then stained by rabbit anti-STAT5 and labeled with goat anti-rabbit-Atto642. The cells were analyzed by pulsed STED microscopy and the number of nuclei expressing pSTAT5 were counted.
# The experiment was repeated twice. From the experimental data we derived the corresponding theoretical curve that gives the IC50.
# sPLA2GIIE = molecular target: T2, sPLA2GIIE (Homo sapiens, UniProt Q9NZK7); assay: sPLA2 specificity panel (Table 1); assay type: biochemical; settings: panel of secreted PLA2, result in words
# T2 sequence (Q9NZK7 20-142): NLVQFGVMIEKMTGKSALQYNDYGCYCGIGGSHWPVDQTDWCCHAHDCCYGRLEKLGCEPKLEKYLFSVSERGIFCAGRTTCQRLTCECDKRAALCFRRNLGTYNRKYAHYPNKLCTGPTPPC
# [1] = molecular target: T3, sPLA2G1B contained in plasma of viremic patients (Homo sapiens, UniProt P04054); assay: Bioassay of IL-7-induced pSTAT5 nuclear translocation in healthy-donor CD4 T cells exposed to plasma/sera of viremic HIV-infected patients; assay type: cell-based; settings: for reversion of inhibition of pSTAT5 nuclear translocation: 50 μM compound; for reversal of plasma/sera-induced inhibition of IL-7-induced NT pSTAT5: 50 microM compound
# T3 construct: CD4 lymphocytes purified from healthy donors were exposed to sera from viremic HIV-infected patients at 3% dilution; from tissue; host or cells: plasma/sera of viremic HIV-infected patients, applied to CD4 T cells of healthy donors
# T3 sequence (P04054 23-148): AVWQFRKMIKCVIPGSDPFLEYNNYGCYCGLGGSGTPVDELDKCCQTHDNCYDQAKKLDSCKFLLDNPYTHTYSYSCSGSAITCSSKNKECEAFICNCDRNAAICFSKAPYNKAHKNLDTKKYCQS
# Experimental: Five sera were tested and the results are given as the median +/−SD.
# Viremic patients (VP) included in the study had been HIV-positive for more than one year. […] All blood samples from VP were drawn at Hôpital Bicêtre or Centre Hospitalier de Gonesse.
# as §1
# We have already shown that sPLA2G1B contained in plasma of viremic patients through induction of aMMD induces a blockade of IL-7-induced nuclear translocation of phospho STAT5 (NT pSTAT5).
# The effects of plasma from various HIV viremic patients (at least 5) were first titrated on the inhibition of IL-7-induced NTpSTAT5. The inhibition is measurable at 1% dilution of the plasma and the effect is maximum at 10% of the plasma. Consequently, in the experiments we used the different plasma at 3% dilution which gives between 30 to 70% of the maximum inhibition. […] The inhibition obtained with the recombinant enzyme reaches a plateau corresponding to a maximum inhibition of around 80%. By contrast, the plateau obtained when the plasma is used is around 90% inhibition, or more (compare data of FIGS. 1 and 2 with data FIG. 3).
# In a further study, the plasma from 5 additional HIV-infected patients was tested. […] 100% inhibition of nuclear translocation of pSTAT5 is observed (see FIG. 4).
# sPLA2GXIIA = molecular target: T4, sPLA2GXIIA (Homo sapiens, UniProt Q9BZM1); assay: sPLA2 specificity panel (Table 1); assay type: biochemical; settings: panel of secreted PLA2, result in words
# T4 sequence (Q9BZM1 23-189): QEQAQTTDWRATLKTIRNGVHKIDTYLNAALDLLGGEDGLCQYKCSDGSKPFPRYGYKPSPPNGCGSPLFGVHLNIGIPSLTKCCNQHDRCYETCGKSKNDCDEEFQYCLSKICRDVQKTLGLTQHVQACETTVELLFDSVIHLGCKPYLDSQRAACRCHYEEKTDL
# sPLA2GIB = sPLA2GIB (Homo sapiens, UniProt P04054); assay: sPLA2 specificity panel (Table 1); assay type: biochemical; settings: panel of secreted PLA2, result in words
# Sequence of sPLA2GIB (P04054 23-148): as the sequence (P04054 23-148) above
# sPLA2GV = molecular target: T5, sPLA2GV (Homo sapiens, UniProt P39877); assay: sPLA2 specificity panel (Table 1); assay type: biochemical; settings: panel of secreted PLA2, result in words
# T5 sequence (P39877 21-138): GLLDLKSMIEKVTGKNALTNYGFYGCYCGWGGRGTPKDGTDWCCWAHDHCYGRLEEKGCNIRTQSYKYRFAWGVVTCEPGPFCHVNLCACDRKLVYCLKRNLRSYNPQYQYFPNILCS
# Description: IC50 values for a panel of secreted Phospholipase A2 (sPLA2) are shown.
# sPLA2G1B = sPLA2G1B (Homo sapiens, UniProt P04054); assay: E. coli membrane sPLA2 activity assay ([3H]oleic acid release); assay type: biochemical
# Sequence of sPLA2G1B (P04054 23-148): as the sequence (P04054 23-148) above
# Experimental: The activity of compounds of formula A towards sPLA2G1B can be tested and verified using the E. coli membrane assay described below:
# The assay is based on the ability of E. coli membranes to incorporate exogenously added fatty acids such as oleic acid (OA). The use of radiolabelled OA allows to follow the incorporation of this fatty acid into membrane phospholipids of E. Coli and its release upon PLA2-mediated hydrolysis of these membranes. Preincubation of the samples, before the assay, with a specific inhibitor or a neutralizing specific antibody directed against the given sPLA2 can indicate which sPLA2 type is detected.
# An overnight culture of E. coli was diluted 1:20 in Luria Broth (LB) medium and incubated at 37° C. for 5 h with vigorous shaking in the presence of 1 mCi/ml [3H]OA (NET 289, NEN, 5 mCi/ml). […]
# The reaction was carried out in a 37° C. water bath for 30 min and stopped with stop buffer containing 0.1 M EDTA and 0.2% free-fatty acids BSA. Then the tubes were centrifuged to spin down E. Coli membranes and aliquotes of supernatants were counted to monitor the [3H]OA released from these membranes. […]
# The sPLA2 activity (A) is calculated as follows: A=A1−A2/B×100. […]
# A is expressed as the % hydrolysis of the total radioactivity incorporated in the E. coli membranes.
# sPLA2GIII = molecular target: T6, sPLA2GIII (Homo sapiens, UniProt Q9NZ20); assay: sPLA2 specificity panel (Table 1); assay type: biochemical; settings: panel of secreted PLA2, result in words
# T6 sequence (Q9NZ20 20-509): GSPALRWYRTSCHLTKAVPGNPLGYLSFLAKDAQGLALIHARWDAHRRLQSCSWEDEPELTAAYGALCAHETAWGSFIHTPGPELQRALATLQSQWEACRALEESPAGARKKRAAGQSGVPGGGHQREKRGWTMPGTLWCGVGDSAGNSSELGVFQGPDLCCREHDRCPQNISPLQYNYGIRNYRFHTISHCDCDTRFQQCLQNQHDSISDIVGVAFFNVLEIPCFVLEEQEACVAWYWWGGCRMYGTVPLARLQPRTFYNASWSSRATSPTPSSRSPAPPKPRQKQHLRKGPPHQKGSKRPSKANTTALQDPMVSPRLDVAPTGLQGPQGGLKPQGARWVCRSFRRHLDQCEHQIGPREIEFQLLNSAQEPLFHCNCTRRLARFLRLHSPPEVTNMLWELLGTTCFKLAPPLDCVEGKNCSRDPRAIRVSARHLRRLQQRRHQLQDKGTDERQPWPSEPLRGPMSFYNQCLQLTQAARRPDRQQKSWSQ
# sPLA2GIID = molecular target: T7, sPLA2GIID (Homo sapiens, UniProt Q9UNK4); assay: sPLA2 specificity panel (Table 1); assay type: biochemical; settings: panel of secreted PLA2, result in words
# T7 sequence (Q9UNK4 21-145): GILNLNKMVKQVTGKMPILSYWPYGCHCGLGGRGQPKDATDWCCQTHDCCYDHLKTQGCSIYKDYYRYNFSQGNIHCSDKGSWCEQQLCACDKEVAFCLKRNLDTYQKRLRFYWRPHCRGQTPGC
# [2] = recombinant PLA2G1B 75 nanoM, pre-exposed 30 mn to compound, FIG. 1
# T1 sequence (P04054 23-148): as the sequence (P04054 23-148) above
smiles,measurement,setting,value
CCc1c(C(=O)C(N)=O)c2c(OCC(=O)O)cccc2n1Cc1ccccc1 [Compound B],IC50,Recombinant PLA2G1B,6.01 µM
same,concentration at which inhibitory effects are maximum,Recombinant PLA2G1B; [2],8 µM
same,concentration at which inhibitory effects begin,Recombinant PLA2G1B; [2],5 µM
same,"plateau, maximum inhibition",Recombinant PLA2G1B; recombinant enzyme in serum free buffer,around 80%
same,IC50 sPLA2GIIE,sPLA2GIIE,significant IC50
same,reversion of inhibition of pSTAT5 nuclear translocation,"[1]; 1% plasma, FIG. 4",the reversion is complete
same,reversion of inhibition of pSTAT5 nuclear translocation,"[1]; 3% plasma, FIG. 4",about 90%
same,reversal of plasma/sera-induced inhibition of IL-7-induced NT pSTAT5,"[1]; sera at 1% or 3% dilution, 5 additional patients, FIG. 4",completely reverse this inhibition
same,reversal of plasma/sera-induced inhibition of IL-7-induced NT pSTAT5,"[1]; sera at 1% or 3% dilution, 5 additional patients, FIG. 4, listed as compound B",totally reversed this inhibition
same,reversal of plasma/sera-induced inhibition of IL-7-induced NT pSTAT5,"[1]; sera at 3% dilution, five sera, FIG. 3",revert the inhibitory activity of the plasma
same,reversal of plasma/sera-induced inhibition of IL-7-induced NT pSTAT5,"[1]; sera at 3% dilution, five sera, FIG. 3, listed as compound B",totally reversed this inhibition
same,plateau inhibition when plasma is used,[1]; plasma of viremic patients,≥ 90%
same,recognition/binding of sPLA2GXIIA,sPLA2GXIIA,does not recognize or bind
same,IC50 sPLA2GIB,sPLA2GIB,significant IC50
same,IC50 sPLA2GV,sPLA2GV,significant IC50
same,inhibitory effect on sPLA2G1B activity,sPLA2G1B,particularly strong inhibitory effect
same,recognition/binding/activity towards sPLA2GIII (group III PLA2),sPLA2GIII,does not recognize or bind
same,recognition/binding/activity towards sPLA2GIII (group III PLA2),sPLA2GIII; listed as compound B,no activity
same,IC50 sPLA2GIID,sPLA2GIID,significant IC50
